These results are taken from patent publication US12428433B2, “Fluorine-containing heterocyclic derivatives with macrocyclic structure and use thereof” (ScinnoHub Pharmaceutical Co., Ltd, priority 2019, dated 2025).

A word on the microsomal CLint: it is the capacity of the preparation to metabolise the compound, expressed as a volume cleared per time. The half-life is the time in which the quantity being followed falls by half. Low readings indicate rapid decline, high ones slow decline.

The test system of data set [1] is Ba/F3 LMNA-NTRK1-G595R. Nature of the data set: In-vitro cell viability (CTG), NTRK mutant cells. It counts as cell-based. Particulars: Mus musculus, read-out: Ba/F3 LMNA-NTRK1-G595R IC50. The protocol:
(§1) Hefei Precedo Biomedical Technology Co., Ltd. was commissioned to complete the testing example, and NTRK mutant cells used were constructed by this company.
(§2) Inhibitory effects of the compound of the present application on growth of three NTRK mutant cells (Ba/F3 LMNA-NTRK1-G667C, Ba/F3 EVT6-NTRK3-G623R and Ba/F3 LMNA-NTRK1-G595R) were measured.
(§3) Cells in logarithmic growth phase were collected and counted by a blood platelet counter, a cell concentration was adjusted to 3 to 6×10^4 cell/mL, 90 μL of cell suspension was added into a 96-well plate, and cells in the 96-well plate were cultured at 37° C. under 5% CO2 and 95% humidity overnight.
(§4) The to-be-tested compound was prepared into a 10 times drug solution in a medium containing 1% DMSO, with […] and the drug solution was diluted by 3 times in sequence to obtain drug solutions with 9 concentrations in total. […] 10 μL of prepared drug solution was added into each well of the 96-well plate in which the cells were inoculated. Then, 90 μL of medium containing 1% DMSO was added to obtain a drug solution with a highest concentration of 1 μM, and the drug solution was diluted by 3 times in sequence to obtain drug solutions with 9 concentrations in total. A final concentration of DMSO in each well was 0.1%, and three multiple wells were provided for the drug of each concentration. The cells in the 96-well plate in which the drug has been added were cultured at 37° C. under 5% CO2 and 95% humidity for 72 hours, and then subjected to CTG analysis.
(§5) An equal volume of CTG solution was added into each well, the 96-well plate was placed at room temperature for 20 minutes to stabilize a luminescence signal, and a luminescence value was read.
(§6) Data was analyzed by GraphPad Prism 7.0 software, and fitted by nonlinear S-curve regression to obtain a dose-effect curve, from which an IC50 value was calculated. Cell survival rate (%)=(Lum to-be-tested drug−Lum medium control)/(Lum cell control−Lum medium control)×100%.

For data set [2], the system named is Ba/F3 LMNA-NTRK1-G667C. Briefly: In-vitro cell viability (CTG), NTRK mutant cells. The class given is cell-based. Particulars: Mus musculus, read-out: Ba/F3 LMNA-NTRK1-G667C IC50. The protocol: as §1, §2, §3, §4, §5, §6
Data set [3] has as its system Ba/F3 EVT6-NTRK3-G623R. Briefly: In-vitro cell viability (CTG), NTRK mutant cells. As to conditions: for IC50: Mus musculus, read-out: Ba/F3 EVT6-NTRK3-G623R IC50. It counts as cell-based. The protocol:
as §1, §2, §3, §4, §5, §6

Data set [4] has as its target TRKC(G623R) (Homo sapiens (Human), UniProt Q16288, G623R). Briefly: Kinase inhibitory activity (Caliper mobility shift), TRKC(G623R). It counts as biochemical. The protocol:
Sundia Meditech (Shanghai) Co., Ltd. was commissioned to complete the testing example.
3.1 A tested compound was accurately weighed and dissolved in 100% DMSO to prepare into a 10 mM solution.
250 nL of the compound of 100 times final concentration was transferred to a reaction plate OptiPlate-384F by a dispenser Echo 550.
3.2.3 A kinase solution of 2.5 times final concentration was prepared with 1×kinase buffer.
3.2.4 10 μL of kinase solution of 2.5 times final concentration was added into a compound well and a positive control well respectively; and 10 μL of 1×kinase buffer was added into a negative control well.
3.2.5 The reaction plate was shaken and mixed evenly, and then incubated at room temperature for 10 minutes.
3.2.6 Mixed solutions of ATP and kinase substrate 22 of 5 times and 3 times final concentrations were prepared with 1×kinase buffer.
3.2.7 15 μL of mixed solution of ATP and substrate of 5 times or 3 times final concentration was added.
3.2.8 The 384-well plate was centrifuged at 1,000 rpm for 30 seconds, shaken and mixed evenly, and then incubated at room temperature for corresponding time.
3.2.9 The kinase reaction was terminated.
3.2.10 A conversion rate was read by the microplate reader Caliper EZ Reader.
Calculation Formula Inhibition rate %=(conversion rate % maximum−conversion rate % sample)/(conversion rate % maximum−conversion rate % minimum)×100
wherein the conversion rate % sample was: a reading number of a conversion rate of a sample; the conversion rate % minimum was: an average value of the negative control well, which represented a reading number of a conversion rate without an enzyme activity well; and the conversion rate % maximum was: an average value of a ratio of the positive control well, which represented a reading number of a conversion rate without a compound inhibition well.
Fitting of dose-effect curve: a log value of concentration was used as an X axis, a percentage inhibition rate was used as a Y axis, and the dose-effect curve was fitted by a log (inhibitor) vs. response-variable slope of the analysis software GraphPad Prism 5 (four-parameter model fitting), so as to obtain an IC50 value of each compound on enzyme activity.

Data set [5] in a line: Stability test in liver microsomes, mouse. The class given is in vitro ADME. As to conditions: for half-life at 1 μM: 0.5 mg/mL. The protocol: (§7) A stability of the compound of the present application in liver microsomes of human, rat and mouse was measured.
(§8) 3.1 A buffer and a liver microsome were prepared into an incubation solution according to the following table:
(§9) 3.2 The following two experiments were carried out respectively: a) incubation system added with coenzyme factor NADPH: 25 μL of NADPH (10 mM) was added into an incubation solution (mainly comprising a liver microsome and a phosphate buffer), so that final concentrations of the liver microsome and the NADPH were 0.5 mg/mL and […] respectively; and b) incubation system without coenzyme factor NADPH: 25 μL of phosphate buffer (100 mM) was added into the incubation solution, so that the final concentration of the liver microsome was 0.5 mg/mL. The incubation systems above were preheated at 37° C. for 10 minutes respectively.
(§10) 3.3 2.5 μL of positive control compound or a tested compound solution (100 μM) was added into the incubation systems described in “step 3.2” above respectively for reaction, and the positive control compound was verapamil (purchased from Sigma), so that a final concentration of the tested compound of the present application or the positive control compound was 1 μM. The incubation solution added with the compound was incubated in water at 37° C. in batches.
(§11) 3.4 30 μL of aliquot was taken from a reaction solution after 0.5 minute, 5 minutes, 15 minutes, 30 minutes and 45 minutes respectively, and the reaction was terminated by adding 5 times volume of cold acetonitrile containing 200 nM caffeine and 100 nM tolbutamide. The aliquot was centrifuged at a gravity acceleration of 3,220 g for 40 minutes, and 100 μL of supernatant was mixed with 100 μL of ultrapure water, and then used for LC-MS/MS analysis.
(§12) A peak area was determined by an extracted ion chromatogram. A slope value k was determined by linear regression of a remaining percentage of a parent drug relative to […] an incubation time curve.
(§13) In-vitro half-life periods (t1/2) were respectively calculated and determined according to the slope value, and an average value of the in-vitro half-life periods was converted into an in-vitro intrinsic clearance rate (CLint, represented by μL/min/mg protein).

The nature of data set [6]: Stability test in liver microsomes, human. The class given is in vitro ADME. Particulars: for half-life at 1 μM: 0.5 mg/mL. The protocol:
as §7, §8, §9, §10, §11, §12, §13
A general note: Liver microsomes are a subcellular fraction often used to study metabolism.

Like-named read-outs stand apart in the source and are kept apart here.

Sequence of TRKC(G623R) (Q16288 32-839 G623R): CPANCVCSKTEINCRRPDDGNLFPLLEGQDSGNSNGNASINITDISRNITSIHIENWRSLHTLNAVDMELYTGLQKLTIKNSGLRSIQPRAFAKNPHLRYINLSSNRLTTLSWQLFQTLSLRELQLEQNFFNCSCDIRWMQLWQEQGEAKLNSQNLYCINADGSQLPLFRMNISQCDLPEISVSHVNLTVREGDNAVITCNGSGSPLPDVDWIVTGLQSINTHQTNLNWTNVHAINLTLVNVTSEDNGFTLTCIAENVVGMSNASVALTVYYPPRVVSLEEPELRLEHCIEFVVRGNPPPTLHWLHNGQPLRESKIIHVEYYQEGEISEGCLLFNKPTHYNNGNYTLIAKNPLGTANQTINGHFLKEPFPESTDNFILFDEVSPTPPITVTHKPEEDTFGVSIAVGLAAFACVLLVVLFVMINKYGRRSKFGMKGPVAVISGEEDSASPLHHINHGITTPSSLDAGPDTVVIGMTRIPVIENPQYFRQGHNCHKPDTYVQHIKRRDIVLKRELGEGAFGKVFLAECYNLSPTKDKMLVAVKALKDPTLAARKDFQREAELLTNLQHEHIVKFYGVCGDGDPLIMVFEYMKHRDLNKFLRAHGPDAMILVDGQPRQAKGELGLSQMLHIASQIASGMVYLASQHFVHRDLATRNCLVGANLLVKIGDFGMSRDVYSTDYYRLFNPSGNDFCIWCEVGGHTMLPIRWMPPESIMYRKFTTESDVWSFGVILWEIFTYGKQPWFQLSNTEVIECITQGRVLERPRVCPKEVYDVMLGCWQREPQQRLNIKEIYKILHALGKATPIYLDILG

Consider `O=C1N[C@H]2C[C@H](C2)Oc2ncc(F)cc2[C@H]2CCCN2c2ccn3ncc1c3n2` (stereo in doubt) [Positive control 1, reference compound], for which the IC50 in data set [1] (BaF3, 72 hours, CTG) was determined as 1.8 nM; in data set [2] (BaF3, 72 hours, CTG) it was 1.8 nM; in data set [3] (BaF3, 72 hours, CTG), 18 nM; in data set [4] it was 1.7 nM. Also, the microsomal CLint at 1 μM is 78.6 µL/min/mg in data set [5] and 92.3 µL/min/mg in data set [6]. Moreover, the half-life at 1 μM in data set [5] was 17.6 min; in data set [6], 15 min. The “% Remaining(45 min)” value in data set [5] was found to be 16.90%; in data set [6], 12.43%.
As for `O=C1N[C@H]2C[C@H](C2)Oc2ncc(F)cc2[C@H]2CCCN2c2nc3c1cnn3cc2F` [Example 2, ((1^3E,1^4E,2^2R,5^1S,5^3S)-1^6,3^5-difluoro-4-oxa-6-aza-1(5,3)-pyrazolo[1,5-a]pyrimidine-3(3,2)-pyridine-2(1,2)-pyrrolidine-5(1,3)-cyclobutancycloheptan-7-one], the IC50 in data set [1] (BaF3, 72 h) worked out at 2.3 nM; in data set [2] (BaF3, 72 h) it was 3 nM; in data set [3] (BaF3, 72 h), 14 nM; in data set [4], 1.8 nM. The microsomal CLint at 1 μM in data set [5] was 106 µL/min/mg; in data set [6] it was 86 µL/min/mg. Also, the half-life at 1 μM stood at 13 min in data set [5] and 16.1 min in data set [6]. Moreover, the “% Remaining(45 min)” value in data set [5] was found to be 9.22%; in data set [6] it was 14.38%.
Consider `C[C@H]1Nc2ccn3ncc(c3n2)C(=O)N[C@H]2C[C@H](C2)Oc2ncc(F)cc21` [Positive control 2, reference compound], for which the IC50 is 13 nM in data set [1] (BaF3, 72 hours, CTG); 6.5 nM in data set [2] (BaF3, 72 hours, CTG); 107 nM in data set [3] (BaF3, 72 hours, CTG); 1.4 nM in data set [4]. The microsomal CLint at 1 μM in data set [5] was 73.2 µL/min/mg; in data set [6] it was 16.4 µL/min/mg. For the same molecule, the half-life at 1 μM in data set [5] came to 18.9 min; in data set [6] it was 84.8 min. In addition, the “% Remaining(45 min)” value in data set [5] was determined as 11.64%; in data set [6], 67.39%.
Consider `C[C@H]1Nc2nc3c(cnn3cc2F)C(=O)N[C@H]2C[C@H](C2)Oc2ncc(F)cc21` [Example 3, (3^1S,3^3S,6^3E,6^4E,8R)-1^5,6^6-difluoro-8-methyl-2-oxo-4,7-diaza-6(3,5)-pyrazolo[1,5-a]pyrimidine-1(2,3)-pyridine-3(1,3)-cyclobutylcyclooctane-5-one], for which the IC50 was 4.5 nM in data set [1] (BaF3, 72 hours, CTG); 3.2 nM in data set [2] (BaF3, 72 hours, CTG); 25 nM in data set [3] (BaF3, 72 hours, CTG); 1.5 nM in data set [4]. Besides, the “inhibitory activity higher than that of the positive control compound 2” value in data set [3] (Ba/F3 EVT6-NTRK3-G623R, data of Table 2) came out at 4 times. In addition, the microsomal CLint at 1 μM was 32.1 µL/min/mg in data set [5] and 11.1 µL/min/mg in data set [6]. Further, the half-life at 1 μM in data set [5] was found to be 43.2 min; in data set [6], 128 min. In addition, the “% Remaining(45 min)” value in data set [5] is 39.49%; in data set [6] it was 69.89%.
